Experimental data reported in patent US10065941B2, “Aminotriazine derivative and pharmaceutical composition comprising the same” (Shionogi & Co., Ltd., priority 2013, dated 2018).

Biological target: human P2X3 receptor (Homo sapiens (Human), UniProt P56373)
Assay: Evaluation of human P2X3 receptor inhibitory activity (Test Example 1)
Type: cell-based
Details: C6BU-1 cell transfected with human P2X3 receptor gene, FLIPR 384
In short: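 C6BU-1 cells stably expressing human P2X3, loaded with 4 μM Fluo-3-AM 1 h at 37 °C, preincubated 5 min with test compound, then stimulated with 150 nM ATP solution (stock, pre-dispense) and monitored by FLIPR for 4 min. IC50 derived from maximum fluorescence ratio (post-ATP peak over baseline).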

Chain of human P2X3 receptor (P56373 whole entry): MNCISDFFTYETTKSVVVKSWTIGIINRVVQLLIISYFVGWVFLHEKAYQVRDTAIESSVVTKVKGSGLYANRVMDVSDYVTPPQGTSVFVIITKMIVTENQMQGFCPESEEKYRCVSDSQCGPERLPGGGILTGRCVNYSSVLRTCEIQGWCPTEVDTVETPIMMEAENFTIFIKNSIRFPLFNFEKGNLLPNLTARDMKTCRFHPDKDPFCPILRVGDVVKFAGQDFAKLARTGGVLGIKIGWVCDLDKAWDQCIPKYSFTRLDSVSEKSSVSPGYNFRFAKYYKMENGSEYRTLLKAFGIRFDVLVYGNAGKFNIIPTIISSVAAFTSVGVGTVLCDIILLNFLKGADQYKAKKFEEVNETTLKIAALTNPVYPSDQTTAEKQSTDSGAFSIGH

SMILES | IC50 [nM]
CCOC(=O)[C@H]1C[C@H](n2c(=O)[nH]/c(=N\c3ccc(Oc4ccc(F)cn4)cc3)n(Cc3ccc(C)cc3)c2=O)C1 [Compound I-176] | 7
CCOC(=O)[C@H]1C[C@@H](n2c(=O)[nH]/c(=N\c3ccc(Oc4ccc(F)cn4)cc3)n(Cc3ccc(C)cc3)c2=O)C1 [Compound I-177] | 6
Cc1ccc(Cn2c(=O)n([C@H]3C[C@@H](C(=O)O)C3)c(=O)[nH]/c2=N\c2ccc(Oc3ccc(Cl)cn3)cc2)cc1 [Compound I-179] | 6
CCOC(=O)[C@H]1C[C@H](n2c(=O)[nH]/c(=N\c3ccc(Oc4ccccn4)cc3)n(Cc3ccc(C)cc3)c2=O)C1 [Compound I-180] | 5
CCOC(=O)[C@H]1C[C@@H](n2c(=O)[nH]/c(=N\c3ccc(Oc4ccccn4)cc3)n(Cc3ccc(C)cc3)c2=O)C1 [Compound I-181] | 5
Cc1ccc(Cn2c(=O)n([C@H]3C[C@H](C(=O)O)C3)c(=O)[nH]/c2=N\c2ccc(Oc3ccc(F)cn3)cc2)cc1 [Compound I-182] | 8
Cc1ccc(Cn2c(=O)n([C@H]3C[C@@H](C(=O)O)C3)c(=O)[nH]/c2=N\c2ccc(Oc3ccc(F)cn3)cc2)cc1 [Compound I-183] | 12
Cc1ccc(Cn2c(=O)n([C@H]3C[C@H](C(=O)O)C3)c(=O)[nH]/c2=N\c2ccc(Oc3ccccn3)cc2)cc1 [Compound I-184] | 6
Cc1ccc(Cn2c(=O)n([C@H]3C[C@@H](C(=O)O)C3)c(=O)[nH]/c2=N\c2ccc(Oc3ccccn3)cc2)cc1 [Compound I-185] | 9
COC(=O)C[C@@H](C)n1c(=O)[nH]/c(=N\c2ccc(Oc3ccccn3)cc2)n(Cc2ccc(C)cc2)c1=O [Compound I-186] | 5
Cc1ccc(Cn2c(=O)n([C@H](C)CC(=O)O)c(=O)[nH]/c2=N\c2ccc(Oc3ccccn3)cc2)cc1 [Compound I-187] | 8
COC(=O)C[C@@H](C)n1c(=O)[nH]/c(=N\c2ccc(Oc3ncccc3F)cc2)n(Cc2ccc(C)cc2)c1=O [Compound I-188] | 7
Cc1ccc(Cn2c(=O)n([C@H](C)CC(=O)O)c(=O)[nH]/c2=N\c2ccc(Oc3ncccc3F)cc2)cc1 [Compound I-189] | 12
COC(=O)C[C@@H](C)n1c(=O)[nH]/c(=N\c2ccc(Oc3ccc(F)cn3)cc2)n(Cc2ccc(C)cc2)c1=O [Compound I-190] | 5
Cc1ccc(Cn2c(=O)n([C@H](C)CC(=O)O)c(=O)[nH]/c2=N\c2ccc(Oc3ccc(F)cn3)cc2)cc1 [Compound I-191] | 11
CCOC(=O)C1(Cn2c(=O)[nH]/c(=N\c3ccc(Oc4ccccn4)cc3)n(Cc3ccc(Cl)cc3)c2=O)CC1 [Compound I-192] | 5
O=C(O)C1(Cn2c(=O)[nH]/c(=N\c3ccc(Oc4ccccn4)cc3)n(Cc3ccc(Cl)cc3)c2=O)CC1 [Compound I-193] | 8
COC(=O)[C@@H](C)Cn1c(=O)[nH]/c(=N\c2ccc(Oc3ccccn3)cc2)n(Cc2ccc(C(F)F)cc2)c1=O [Compound I-194] | 12
Cc1ccc(Cn2c(=O)n([C@@H](C)[C@@H](C)C(=O)O)c(=O)[nH]/c2=N\c2ccc(Oc3ccccn3)cc2)cc1 [Compound I-195] | 7
CO[C@H](Cn1c(=O)[nH]/c(=N\c2ccc(Oc3ccccn3)cc2)n(Cc2ccc(Cl)cc2)c1=O)C(=O)O [Compound I-200] | 42
C[C@@H](Cn1c(=O)[nH]/c(=N\c2ccc(Oc3ccccn3)cc2)n(Cc2ccc(C(F)F)cc2)c1=O)C(=O)O [Compound I-201] | 13
C[C@@H](Cn1c(=O)[nH]/c(=N\c2ccc(Oc3ccccn3)cc2)n(CC2CCC3(CC2)CC3)c1=O)C(=O)O [Compound I-202] | 8
COC(=O)[C@@H](Cn1c(=O)[nH]/c(=N\c2ccc(Oc3ccccn3)cc2)n(Cc2ccc(Cl)cc2)c1=O)OC [Compound I-203] | 3

SMILES | IC50 [nM]
COC(=O)[C@@H](C)Cn1c(=O)[nH]/c(=N\c2ccc(Oc3ccccn3)c(F)c2)n(Cc2ccc(C)cc2)c1=O [Compound I-204] | 4
COC(=O)[C@@H](C)Cn1c(=O)[nH]/c(=N\c2ccc(Oc3ccccn3)c(F)c2)n(Cc2ccc(Cl)cc2)c1=O [Compound I-205] | 12
COC(=O)[C@@H](C)Cn1c(=O)[nH]/c(=N\c2ccc(Oc3ccccn3)cc2)n(Cc2ccc(CF)cc2)c1=O [Compound I-206] | 10
COC(=O)[C@@H](C)Cn1c(=O)[nH]/c(=N\c2ccc(Oc3ncccc3F)cc2)n(Cc2ccc(CF)cc2)c1=O [Compound I-207] | 12
COC(=O)[C@@H](C)Cn1c(=O)[nH]/c(=N\c2ccc(Oc3ccc(F)cn3)cc2)n(Cc2ccc(CF)cc2)c1=O [Compound I-208] | 12
COC(=O)[C@@H](C)Cn1c(=O)[nH]/c(=N\c2ccc(Oc3cccc(F)n3)cc2)n(Cc2ccc(CF)cc2)c1=O [Compound I-209] | 8
Cc1ccc(Cn2c(=O)n(C[C@H](C)C(=O)O)c(=O)[nH]/c2=N\c2ccc(Oc3ccccn3)c(F)c2)cc1 [Compound I-210] | 7
C[C@@H](Cn1c(=O)[nH]/c(=N\c2ccc(Oc3ccccn3)c(F)c2)n(Cc2ccc(Cl)cc2)c1=O)C(=O)O [Compound I-211] | 7
Cc1cc(/N=c2\[nH]c(=O)n(C[C@H](C)C(=O)O)c(=O)n2Cc2ccc(Cl)cc2)ccc1Oc1ccccn1 [Compound I-212] | 10
Cc1ccc(Cn2c(=O)n(C[C@H](C)C(=O)O)c(=O)[nH]/c2=N\c2ccc(Oc3ccccn3)c(C)c2)cc1 [Compound I-213] | 12
C[C@@H](Cn1c(=O)[nH]/c(=N\c2ccc(Oc3ccccn3)cc2)n(Cc2ccc(CF)cc2)c1=O)C(=O)O [Compound I-214] | 11
C[C@@H](Cn1c(=O)[nH]/c(=N\c2ccc(Oc3ncccc3F)cc2)n(Cc2ccc(CF)cc2)c1=O)C(=O)O [Compound I-215] | 16
C[C@@H](Cn1c(=O)[nH]/c(=N\c2ccc(Oc3ccc(F)cn3)cc2)n(Cc2ccc(CF)cc2)c1=O)C(=O)O [Compound I-216] | 17
C[C@@H](Cn1c(=O)[nH]/c(=N\c2ccc(Oc3cccc(F)n3)cc2)n(Cc2ccc(CF)cc2)c1=O)C(=O)O [Compound I-217] | 11
COc1cccc(Oc2ccc(/N=c3\[nH]c(=O)n(C[C@H](C)C(=O)O)c(=O)n3Cc3ccc(C)cc3)cc2)n1 [Compound I-218] | 10
Cc1cc(/N=c2\[nH]c(=O)n(CC(C)(C)C(=O)O)c(=O)n2Cc2ccc(Cl)cc2)ccc1Oc1ccccn1 [Compound I-219] | 12
Cc1cc(/N=c2\[nH]c(=O)n([C@@H](C)[C@@H](C)C(=O)O)c(=O)n2Cc2ccc(Cl)cc2)ccc1Oc1ccccn1 [Compound I-220] | 10
COC(=O)[C@@H](C)Cn1c(=O)[nH]/c(=N\c2ccc(Oc3cccc(OC)n3)cc2)n(Cc2ccc(C)cc2)c1=O [Compound I-221] | 11
COC(=O)[C@@H](C)Cn1c(=O)[nH]/c(=N\c2ccc(Oc3ccc(OC)cn3)cc2)n(Cc2ccc(C)cc2)c1=O [Compound I-222] | 4
COC(=O)[C@@H](C)Cn1c(=O)[nH]/c(=N\c2ccc(Oc3ccccn3)c(C)c2)n(Cc2ccc(Cl)cc2)c1=O [Compound I-223] | 11
COC(=O)[C@@H](C)Cn1c(=O)[nH]/c(=N\c2ccc(Oc3ccccn3)c(C)c2)n(Cc2ccc(C)cc2)c1=O [Compound I-224] | 6
COC(=O)C(C)(C)Cn1c(=O)[nH]/c(=N\c2ccc(Oc3ccccn3)c(C)c2)n(Cc2ccc(Cl)cc2)c1=O [Compound I-225] | 14
